# Source: patent US20120029027A1, “N-[(6-AZA-BICYCLO[3.2.1]OCT-5-YL)-ARYL-METHYL]-HETEROBENZAMIDE DERIVATIVES, PREPARATION THEREOF, AND THERAPEUTIC USE OF SAME” (SANOFI, priority 2009, published 2012)
# Counter-ions that a name gives are not always drawn.
# Molecular target: T1, native human transporter GlyT1 (Homo sapiens, UniProt P48067)
# T1 construct: expressing the native human transporter GlyT1; endogenous in cells; host or cells: SK-N-MC (human neuroepithelial cells)
# T1 sequence (P48067 1-706): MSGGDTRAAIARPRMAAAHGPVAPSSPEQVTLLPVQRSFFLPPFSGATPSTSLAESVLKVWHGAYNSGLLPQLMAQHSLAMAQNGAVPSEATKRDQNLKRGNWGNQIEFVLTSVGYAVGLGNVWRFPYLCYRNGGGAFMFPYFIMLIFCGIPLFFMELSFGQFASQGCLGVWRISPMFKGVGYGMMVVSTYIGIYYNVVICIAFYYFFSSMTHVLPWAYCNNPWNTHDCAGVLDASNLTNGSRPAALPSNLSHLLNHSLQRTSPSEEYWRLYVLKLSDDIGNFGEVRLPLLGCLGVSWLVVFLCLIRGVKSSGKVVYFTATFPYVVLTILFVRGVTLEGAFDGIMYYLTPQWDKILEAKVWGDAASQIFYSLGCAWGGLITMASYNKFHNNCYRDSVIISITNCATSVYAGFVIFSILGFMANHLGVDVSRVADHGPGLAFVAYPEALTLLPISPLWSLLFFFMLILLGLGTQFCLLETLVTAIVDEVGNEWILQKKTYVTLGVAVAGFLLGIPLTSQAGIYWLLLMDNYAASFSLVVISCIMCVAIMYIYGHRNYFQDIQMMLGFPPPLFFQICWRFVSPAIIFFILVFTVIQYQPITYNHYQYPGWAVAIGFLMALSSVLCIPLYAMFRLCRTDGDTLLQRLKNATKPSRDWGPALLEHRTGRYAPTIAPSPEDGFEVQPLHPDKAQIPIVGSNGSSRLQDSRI
# Test: Study of glycine transportation ([14C]glycine uptake) in SK-N-MC cells expressing the native human transporter GlyT1
# Type: cell-based
# Details: 10 μM [14C]glycine, 10 min at 37° C., concentration which reduces by 50% the specific uptake of glycine, read-out: CI50 (the source's name)
# Description: Study of Glycine Transportation in SK-N-MC Cells Expressing the Native Human Transporter GlyT1.
# The uptake of [^14C]glycine is studied in SK-N-MC cells (human neuroepithelial cells) expressing the native human transporter GlyT1 by measuring the radioactivity incorporated in the presence or absence of the test compound. The cells are cultured as a monolayer for 48 hours in plates pretreated with 0.02% fibronectin. On the day of the experiment, the culture medium is removed and the cells are washed with Krebs-HEPES (4-(2-hydroxyethyl)piperazine-1-ethanesulphonic acid) buffer at pH 7.4. After preincubation for 10 minutes at 37° C. in the presence either of buffer (control batch) or of test compound at various concentrations or of 10 mM of glycine (determination of the non-specific uptake), 10 μM of [^14C]glycine (specific activity 112 mCi/mmol) are subsequently added. Incubation is continued for 10 min at 37° C. and the reaction is halted by washing twice with pH 7.4 Krebs-HEPES buffer. The radioactivity incorporated by the cells is then estimated after adding 100 μl of liquid scintillant and stirring for 1 h. Counting is carried out on a Microbeta Tri-Lux™ counter. The effectiveness of the compound is determined by the IC50, the concentration of the compound which reduces by 50% the specific uptake of glycine, defined by the difference in radioactivity incorporated by the control batch and the batch which received the 10 mM glycine.
row,IC50 [nM],Compound
1,140,"CSc1ncccc1C(=O)NC(c1ccccc1)C12CCCC(CN1)C2 (racemic) [Compound 2, N-[(6-azabicyclo[3.2.1]oct-5-yl)phenylmethyl](2-methylsulphanyl)nicotinamide]"
2,220,"O=C(NC(c1ccccc1)C12CCCC(CN1)C2)c1nccc(C(F)(F)F)c1Cl (racemic) [Compound 3, N-[(6-Azabicyclo[3.2.1]oct-5-yl)phenylmethyl](3-chloro-4-trifluoromethyl)pyridine-2-carboxamide]"
3,130,"CSc1ncccc1C(=O)NC(c1ccc(F)cc1)C12CCCC(CN1)C2 (racemic) [Compound 8, N-[(6-Azabicyclo[3.2.1]oct-5-yl)(4-fluorophenyl)methyl]-2-methylsulfanyl-nicotinamide]"
4,170,"O=C(NC(c1cccc(C(F)(F)F)c1)C12CCCC(CN1)C2)c1nccc(C(F)(F)F)c1Cl (racemic) [Compound 11, N-[(6-Azabicyclo[3.2.1]oct-5-yl)(3-trifluoromethylphenyl)methyl](3-chloro-4-trifluoromethyl)pyridine-2-carboxamide]"
5,610,"O=C(NC(c1ccccc1)C12CCCC(CN1)C2)c1cccc2c1ccn2Cc1ccccc1 (centres unmarked) [Compound 6, [(6-Azabicyclo[3.2.1]oct-5-yl)phenylmethyl](1-benzyl)-1H-indole-4-carboxamide]"

# Test system: not given
# Test: not given
# Details: not given
row,melting point [°C],Compound
1,158 to 160,"O=C(NC(c1ccccc1)C12CCCC(CN1)C2)c1nccc(C(F)(F)F)c1Cl (racemic) (as salt: HCl) [Compound 3, N-[(6-Azabicyclo[3.2.1]oct-5-yl)phenylmethyl](3-chloro-4-trifluoromethyl)pyridine-2-carboxamide]"
2,234 to 236,"CSc1ncccc1C(=O)NC(c1ccc(F)cc1)C12CCCC(CN1)C2 (racemic) (as salt: HCl) [Compound 8, N-[(6-Azabicyclo[3.2.1]oct-5-yl)(4-fluorophenyl)methyl]-2-methylsulfanyl-nicotinamide]"
3,205 to 207,"CSc1ncccc1C(=O)NC(c1cccc(C)c1)C12CCCC(CN1)C2 (racemic) (as salt: HCl) [Compound 10, N-[(-6-Azabicyclo[3.2.1]oct-5-yl)-m-tolylmethyl]-2-methylsulfanylnicotinamide]"
4,250.4 to 251.4,"O=C(NC(c1cccc(C(F)(F)F)c1)C12CCCC(CN1)C2)c1nccc(C(F)(F)F)c1Cl (racemic) (as salt: HCl) [Compound 11, N-[(6-Azabicyclo[3.2.1]oct-5-yl)(3-trifluoromethylphenyl)methyl](3-chloro-4-trifluoromethyl)pyridine-2-carboxamide]"
5,95 to 97,"O=C(NC(c1ccccc1)C12CCCC(CN1)C2)c1cc(Cl)sc1Cl (racemic) [Compound 1, N-[(6-Azabicyclo[3.2.1]oct-5-yl)phenylmethyl](2,5-dichloro)thiophene-3-carboxamide]"
6,150 to 152,"Cn1cnc(C(=O)NC(c2ccccc2)C23CCCC(CN2)C3)c1 (racemic) [Compound 7, N-[(6-Azabicyclo[3.2.1]oct-5-yl)phenylmethyl](1-methyl)-1H-imidazole-4-carboxamide]"
